Assay results reported in patent US8158088B2, “Extractant compositions for co-extracting cesium and strontium, a method of separating cesium and strontium from an aqueous feed, and calixarene compounds” (Battelle Energy Alliance, LLC, priority 2008, dated 2012).
Several values for one entry are separate records, joined by “and”; a condition that tells them apart may be missing. Equal values may be shown once.

Tests used:
Format in all cases: physicochemical
[1] = Third phase formation on contact with nitric acid
[2] = Solvent stability: strontium distribution ratios as a function of contact time with 1.5 M HNO3
Method: (§1) The stability of the mixed extractant solvents prepared using dialkyloxycalix[4]arenebenzocrown-6 compounds (MC-8, MC-8B, MC-10, MC-10B, MC-12, or MC-12B) relative to BOBCalixC6 in the FPEX I process solvent was determined. Samples were prepared using each of the dialkyloxycalix[4]arenebenzocrown-6 compounds and contacted with 1.5 M HNO3. The samples included 0.007 M of the respective dialkyloxycalix[4]arenebenzo-crown-6 compound (MC-8, MC-8B, MC-10, MC-10B, MC-12, or MC-12B), 0.075 M DtBuCH18C6, 0.75 M Cs-7SB modifier, and 0.003 M TOA in ISOPAR® L. The stability of the dialkyloxycalix[4]arene-benzocrown-6 based solvents was evaluated by measuring the cesium and strontium distribution ratios as a function of contact time. These cesium and strontium distribution ratios for the mixed extractant solvents are presented in Table 9 and Table 10, respectively, along with the cesium and strontium distribution ratios for the FPEX I process solvent. The symbol “-” is used in Tables 9 and 10 to indicate no data was collected.
(§2) This degradation is likely due to chemical attack or nitration of the BOBCalixC6 in the FPEX I process solvent. […] However, it is difficult to compare the relative extents of degradation. In order to compare the different extractants, the distribution ratio data presented in Tables 9 and 10 were normalized to the values obtained at t=0 days contact. The normalized cesium and strontium distribution ratios for the FPEX I process solvent and the mixed extractant solvents as a function of contact time are presented in FIGS. 2 and 3, respectively.

[3] = Strontium distribution ratio (DSr), equilibrium batch contact of mixed extractant solvent with nitric acid feed; conditions: for DSr: 1.5 HNO3
[4] = Cesium distribution ratio (DCs), equilibrium batch contact of mixed extractant solvent with nitric acid feed; conditions: for DCs: 1.5 HNO3
From the text: The distribution of cesium and strontium between the first organic phase (the mixed extractant solvent including the dialkyloxycalix[4]arenebenzocrown-6 compound) and the first aqueous phase (aqueous feed) may be determined by conventional techniques. The distribution ratio for strontium (“DSr”) may be calculated as the ratio of organic phase activity to the aqueous phase activity at equilibrium. High values for the DSr indicate that the strontium is present predominantly in the organic phase while low values for the DSr indicate that the strontium is present predominantly in the aqueous phase. Similarly, the distribution ratio for cesium (“DCs”) may be calculated as the ratio of organic phase activity to the aqueous phase activity at equilibrium. High values for the DCs indicate that the cesium is present predominantly in the organic phase while low values for the DCs indicate that the cesium is present predominantly in the aqueous phase.
Distribution ratios (DM=[M]org/[M]aq) were measured by equilibrium batch contacts between the organic and aqueous phases at an organic-to-aqueous phase ratio (O/A) of unity (O/A=1). All distribution ratio measurements were conducted in a temperature controlled water bath at 25±1° C. The aqueous phase was of the appropriate HNO3 concentration, to which trace quantities (typically, less than 10^−7 M each) of the major radionuclides of interest (^137Cs, ^85Sr, ^154Eu, or ^241Am) were added. The organic and aqueous phases were contacted by vortex mixing for 1 minute. All batch contact experiments were performed at ambient temperature (from approximately 20° C. to approximately 25° C.) unless otherwise noted. Following extraction, the samples were centrifuged for 1 minute and the organic and aqueous phases separated by pipet or centrifugation. The distribution ratios (DSr, or DCs) were calculated as the ratio of the appropriate specific activities in the organic and aqueous phases as determined by γ-ray counting (gamma spectroscopy). The counting time was selected to provide less than approximately 1% statistical uncertainty.
(MC-8, MC-8B, MC-10, MC-10B, MC-12, or MC-12B), 0.075 M DtBuCH18C6, 0.75 M Cs-7SB modifier, and 0.003 M TOA in ISOPAR® L were evaluated for their respective abilities to simultaneously extract cesium and strontium from the aqueous feed simulant composition described in Table 2. The cesium and strontium distribution ratios of the mixed extraction solvents were compared to those of the FPEX I process solvent. The cesium extraction performance and strontium extraction performance of each of the mixed extractant solvents was determined using the batch contact flowsheet presented in FIG. 1, where “E1,” “E2,” and “E3” refer to three forward extraction acts: a first extraction act, a second extraction act, and a third extraction act, respectively, and “St1” and “St2” refer to two backward extraction acts: a first strip act and a second strip act, respectively. […] The aqueous feed 2 and the mixed extractant solvent 4 were combined in a vessel 6 to conduct the extraction. Two phases were formed during the extraction: the first organic phase and the first aqueous phase, with the cesium and strontium substantially distributed in the first organic phase.
The cesium and strontium distribution ratios for the mixed extractant solvents 4 were calculated for the first organic phase and are reported in Tables 3 and 4, respectively, as E1, along with the cesium and strontium distribution ratios for the FPEX I process solvent. The cesium and strontium were stripped from the first (and subsequent) organic phase to recover these radionuclides. For the strips or backward extractions, the first (and subsequent) organic phase was contacted with dilute acidic solution 8, which was 0.01 M HNO3. […]

[5] = Solvent stability: cesium distribution ratios as a function of contact time with 1.5 M HNO3
Method: as §1, §2

[6] = contact time 0 days with 1.5 M HNO3, 0.007 M calixarene, 0.075 M DtBuCH18C6, 0.75 M Cs-7SB, 0.003 M TOA in ISOPAR L
[7] = contact time 34 days with 1.5 M HNO3
[8] = contact time 70 days with 1.5 M HNO3
[9] = contact time 278 days with 1.5 M HNO3
[10] = [DtBuCH18C6]/[MC-10B] 50/10 mM, 1.5 M Cs-5SB
[11] = [DtBuCH18C6]/[MC-10B] 60/10 mM, 1.5 M Cs-5SB
[12] = [DtBuCH18C6]/[MC-10B] 60/15 mM, 1.5 M Cs-5SB
[13] = [DtBuCH18C6]/[MC-10B] 90/20 mM, 1.5 M Cs-5SB in ISOPAR L, feed 0.004 M cesium nitrate, 0.002 M strontium nitrate
[14] = first forward extraction, 1.5 M HNO3 feed simulant, 25 °C, 0.007 M calixarene, 0.075 M DtBuCH18C6, 0.75 M Cs-7SB, 0.003 M TOA in ISOPAR L
[15] = first strip with 0.01 M HNO3, 35 °C, 0.007 M calixarene solvent
[16] = second forward extraction, 1.5 M HNO3 feed, 25 °C, 0.007 M calixarene solvent
[17] = second strip with 0.01 M HNO3, 35 °C, 0.007 M calixarene solvent
[18] = third forward extraction, 1.5 M HNO3 feed, 25 °C, 0.007 M calixarene solvent

CCC(C)c1ccc(OCC(O)COCC(F)(F)C(F)F)cc1 (centres unmarked) [Cs-7SB, 1-(2,2,3,3-tetrafluoropropoxy)-3-(4-sec-butylphenoxy)-2-propanol, reference compound]
nitric acid concentration above which a third phase forms ([1]; mixed extractant solvent with Cs-7SB as modifier added to aqueous feed): > 1.5 M

CC(C)CCCC(C)CCOc1c2cccc1Cc1cccc3c1OCCOCCOc1ccccc1OCCOCCOc1c(cccc1Cc1cccc(c1OCCC(C)CCCC(C)C)C3)C2 (centres unmarked) [MC-10B, 1,3-alternate-25,27-di(3,7-dimethyloctyl-1-oxy)calix[4]arenebenzocrown-6]
Strontium distribution ratio as a function of contact time [2, 6]: 9.6
Strontium distribution ratio as a function of contact time [2, 7]: 8.5
Strontium distribution ratio as a function of contact time [2, 8]: 9.5
Strontium distribution ratio as a function of contact time [2, 9]: 8.0
DSr [3, 10]: 4.03 and 4.11
DSr [3, 11]: 4.83 and 4.90
DSr [3, 12]: 4.73 and 4.69
DSr [3, 13]: 6.90 and 6.94
Strontium distribution ratio, contact E1 [3, 14]: 9.6
Strontium distribution ratio, contact St1 [3, 15]: 0.06
Strontium distribution ratio, contact E2 [3, 16]: 8.6
Strontium distribution ratio, contact St2 [3, 17]: 0.01
Strontium distribution ratio, contact E3 [3, 18]: 8.3
DCs [4, 10]: 2.87 and 2.88
DCs [4, 11]: 2.77 and 2.81
DCs [4, 12]: 4.48 and 4.37
DCs [4, 13]: 6.11 and 6.36
Cesium distribution ratio, contact E1 [4, 14]: 3.7
Cesium distribution ratio, contact St1 [4, 15]: 0.5
Cesium distribution ratio, contact E2 [4, 16]: 1.9
Cesium distribution ratio, contact St2 [4, 17]: 0.2
Cesium distribution ratio, contact E3 [4, 18]: 1.5
third phase formation ([1]; up to 2 M HNO3, 0.007 M MC-10B, 0.075 M DtBuCH18C6, 0.75 M Cs-7SB in ISOPAR L): no formation of third phases was detected
third phase formation ([1]; varying MC-10B and DtBuCH18C6 concentrations, 1.5 M Cs-5SB in ISOPAR L, 1.5 HNO3): No third phase formation was observed
Cesium distribution ratio as a function of contact time [5, 6]: 3.7
Cesium distribution ratio as a function of contact time [5, 7]: 3.0
Cesium distribution ratio as a function of contact time [5, 8]: 3.4
Cesium distribution ratio as a function of contact time [5, 9]: 2.8
